Experimental data reported in ChEMBL document CHEMBL6083245, “Digoxin and its Na+/K+-ATPase-targeted actions on cardiovascular diseases and cancer” (Bioorg Med Chem, 2024).

Experiments:
Format in all cases: functional, cell-based
[1] = tested on: OVCAR-3; test: Cytotoxicity against human OVCAR-3 cells assessed as reduction in cell growth incubated for 72 hrs by MTT assay; details: OVCAR-3, 72 h
[2] = tested on: SW-620; test: Cytotoxicity against human SW620 cells assessed as reduction in cell growth incubated for 72 hrs by MTT assay; details: SW-620, 72 h
[3] = tested on: NCI-H1299; test: Antiproliferative activity against human NCI-H1299 cells assessed as reduction in cell viability incubated for 48 hrs by Cell-titer Glo luminescent assay; details: NCI-H1299, 48 h
[4] = tested on: NCI-H69; test: Antiproliferative activity against human NCI-H69 cells assessed as reduction in cell viability incubated for 48 hrs by Cell-titer Glo luminescent assay; details: NCI-H69, 48 h
[5] = tested on: MDA-MB-435; test: Cytotoxicity against human MDA-MB-435 cells assessed as reduction in cell growth incubated for 72 hrs by MTT assay; details: MDA-MB-435, 72 h
[6] = tested on: MDA-MB-231; test: Cytotoxicity against human MDA-MB-231 cells assessed as reduction in cell growth incubated for 72 hrs by MTT assay; details: MDA-MB-231, 72 h
[7] = tested on: NCI-H526; test: Antiproliferative activity against human NCI-H526 cells assessed as reduction in cell viability incubated for 48 hrs by Cell-titer Glo luminescent assay; details: NCI-H526, 48 h
[8] = tested on: NCI-H1963; test: Antiproliferative activity against human NCI-H1963 cells assessed as reduction in cell viability incubated for 48 hrs by Cell-titer Glo luminescent assay; details: NCI-H1963, 48 h
[9] = tested on: NCI-H82; test: Antiproliferative activity against human NCI-H82 cells assessed as reduction in cell viability incubated for 48 hrs by Cell-titer Glo luminescent assay; details: NCI-H82, 48 h
[10] = tested on: HeLa; test: Antiproliferative activity against human HeLa cells assessed as reduction in cell viability by MTS assay
[11] = Antiproliferative activity against human NCI-H196 cells assessed as reduction in cell viability incubated for 48 hrs by Cell-titer Glo luminescent assay; details: NCI-H196, 48 h
[12] = tested on: HCT-8; test: Cytotoxicity against human HCT-8 cells assessed as reduction in cell growth incubated for 72 hrs by MTT assay; details: HCT-8, 72 h
[13] = Antiproliferative activity against human NSCLC cells assessed as reduction in cell viability incubated for 48 hrs by Cell-titer Glo luminescent assay
[14] = tested on: A549; test: Antiproliferative activity against human A549 cells assessed as reduction in cell viability incubated for 48 hrs by Cell-titer Glo luminescent assay; details: A549, 48 h
[15] = tested on: HT-29; test: Cytotoxicity against human HT-29 cells assessed as reduction in cell growth incubated for 72 hrs by MTT assay; details: HT-29, 72 h

Measured: IC50

C[C@H]1O[C@@H](O[C@H]2[C@@H](O)C[C@H](O[C@H]3[C@@H](O)C[C@H](O[C@H]4CC[C@@]5(C)[C@H](CC[C@@H]6[C@@H]5C[C@@H](O)[C@]5(C)[C@@H](C7=CC(=O)OC7)CC[C@]65O)C4)O[C@@H]3C)O[C@@H]2C)C[C@H](O)[C@@H]1O [DIGOXIN]
100 nM: [1] | [2] | [5] | [6] | [12] | [15]
50 nM: [3] | [4] | [7] | [8] | [9] | [11] | [13] | [14]
0.2 nM: [10]
